Structures are written as SMILES. “And” between values parts separate entries of the source, which are not always exact repeats. Equal values may be shown once. Read-outs that look alike come from different tables or passages of the source.

The AUC is concentration integrated over time. Usually Cmax stands for the highest concentration seen after dosing.

Series [1] is described as follows: Cardiovascular study in dogs comparing metabolite A with milrinone.
Experimental: (§1) A study was conducted in a large group of dogs comparing metabolite A with the standard reference inotrope milrinone.
Series [2] concerns PDE III. Briefly: PDE III activity of anagrelide and metabolite A. The class given is biochemical. As to the method: Inhibition of PDE III, which is present in myocardium, causes an increase in both the force and rate of cardiac contractility. These are undesirable side effects for a platelet reducing agent.
The PDE III activity of both anagrelide and metabolite A was evaluated by standard methods.

The test system of series [3] is platelet. Briefly: Therapeutic platelet lowering action.
The conditions of series [4]: dog, in vivo.
Experimental: as §1
Series [5] in a line: Plasma levels of anagrelide and metabolite A after oral, intra-venous and transdermal anagrelide in the mini-pig. The class given is in vivo. The conditions noted are these: for AUC / Cmax: mini-pig n=3, plasma analyte = label. How it is done:
The plasma level of anagrelide and metabolite A were measured in a mini-pig study following oral, intra-venous and transdermal administration of anagrelide.
The comparative bioavailability of anagrelide following oral administration of 1 mg or the dermal application of a saturated solution to ˜45 cm2 surface area of the back was assessed in three minipigs. Standard AgrylinR capsules (2×0.5 mg) were administered orally to fasted animals, whereas the dermal formulation was a saturated solution of the drug in 5% (v/v) oleic acid in propylene glycol.
Plasma concentrations of anagrelide and its metabolites were determined by a validated LC-MS/MS assay. Pharmacokinetic parameters were calculated by non-compartmental methods using WinNonlin.
Studies in the Mini-Pig (n=3)

Series [6] in a line: Pharmacokinetics in healthy male volunteers after a single dose of anagrelide. Conditions: healthy male volunteers N=38; single 1 mg oral dose of anagrelide; analyte = label. From the text: Summary of mean Pharmacokinetic Parameters of Anagrelide in Volunteers after a Single Dose of the Drug
Series [7] relates to CD34+ cells. Nature of the series: Megakaryocyte number in thrombopoietin-expanded CD34+ cell cultures. The conditions noted are these: for effect on number of megakaryocytes: day-8 cultures; for number of megakaryocytes: day-12 cultures. The class given is cell-based. From the text: Cells were harvested for analysis after 4 or 8 days of the initiation of drug treatment (day-8 and day-12 cultures, respectively). As shown in FIG. 2 in day-8 cultures no effect of anagrelide could be detected.

A short description of series [8]: Permeation of anagrelide from saturated solutions through human epidermis (Franz-type diffusion cells). It counts as in vitro ADME. How it is done: Saturated Solutions of Anagrelide were Prepared in:
1. 5% lauryl alcohol in isopropyl myristate (LA in IPM)
2. 2% oleic acid in propylene glycol (OA in PG)
3. 0.5% oleic acid in propylene glycol
4. 5% glyceryl monooleate in isopropyl myristate (GMO in IPM)
5. 5% glyceryl laurate in isopropyl myristate (GLA in IPM)
9. Isopropyl myristate (IPM)
11. 5% oleic acid (OA) in propylene glycol (PG)
12. 70:30 (v/v) dimethyl sulfoxide: propylene glycol
An analytical method using HPLC with UV detection was established for anagrelide. Six point calibration curves were generated over the range 0.2-2 μg/ml were generated for each analytical run and the precision confirmed on each occasion by the making at least 7 replicate injections of the highest standard. Details of the equipment and methods used are given below.
Human epidermis was prepared by the heat separation technique (A. M. Kligman and E Christophers, Preparation of isolated sheets of human stratum corneum. Arch Dermatol., vol. 88, 70-73 (1963). Water was heated to 60° C. on a hotplate and the skin was immersed in the water at this temperature for 1 minute. The skin was then removed from the water and the epidermis carefully peeled off using blunt tweezers. Care was taken not to introduce any holes in this process. The epidermal tissue was placed on a filter paper stratum corneum uppermost. The samples were then stored in freezer.
Franz-type horizontal glass diffusion cells were used. The receptor medium was thermostatted at 37° C., to represent body temperature. There will be a temperature gradient across the membrane and applied solution, but this should simulate ‘in use’ conditions. Under these conditions the surface temperature of the skin was 32° C.
The skin samples were thawed overnight before use. The epidermal membranes were cut to size and were placed between the two halves of the cells. High vacuum grease was used to seal the two compartments. The cell was clamped using a metal holder. The receptor arm was closed using glass caps to prevent evaporation. The donor compartment was occluded to prevent any donor solution evaporation
The receptor medium was first introduced and equilibrated for 1 h. 1 mL of the saturated solution with excess drug was applied in the donor compartment. Excess drug was used to ensure there is no depletion of the drug during the course of the experiment. The starting time was taken as the time at which the solutions were applied.
At set sampling points (12, 24, 30, 36 and 48 hours), 200 μL of the receptor phase from each diffusion cell was removed for analysis of the anagrelide and replaced by an equivalent of fresh receptor phase solution pre-thermostatted to 37° C.
For each solution, six replicates were tested. A control (without any formulation applied in the donor compartment) was also examined.

Assay in series [9]: as above
It counts as in vitro ADME. The conditions noted are these: for Amt permeated at 24 hours: human epidermis.

Series [10] can be described thus: Pharmacokinetics in patients with myeloproliferative disease at steady state. Conditions: patients N=18, multiple dosing, analyte = label.
[11] abbreviates: anagrelide Dermal, saturated solution in 5% OA in PG, ~45 cm2, 24 h.
[12] abbreviates: anagrelide Intra-venous 1 mg/propylene glycol.

In the case of `Cc1[nH]c(=O)c(C#N)cc1-c1ccncc1` [milrinone], the “effect on (+)dP/dt max (a measure of contractility)” value in series [1] is on record as “immediate, dose-dependent increases in (+)dP/dt max, but they were not well sustained”. Besides, in series [1] (dose-dependent), the “maximum decrease in mean blood pressure” value is on record as “about 30 mmHg” and the “mean maximum increase in heart rate” value is recorded as around 76 b.p.m.

With `O=C1NC2=Nc3ccc(Cl)c(Cl)c3CN2C1O` (stereo not drawn) [Metabolite A], in series [2] (earlier in vitro studies), the “potency relative to anagrelide as an inhibitor of PDEIII” value was 40 fold. Besides, the “PDE III potency relative to anagrelide” value in series [2] (standard methods) is reported as 40 ×. Besides, in series [2] (statement), the “potency as a cardiovascular agent relative to anagrelide” value is on record as around 40 times. Also, in [3], the “therapeutic platelet lowering action relative to anagrelide” value is on record as “equipotent”. In series [4], the “effect on (+)dP/dt max (a measure of contractility)” value was “well sustained and largely dose-dependent”; the “maximum decrease in mean blood pressure” value is “about 30 mmHg”; the “mean maximum increase in heart rate” value was around 66 b.p.m; the “potency relative to milrinone in decreasing mean blood pressure” value came to 10 ×.

As for `O=C1CN2Cc3c(ccc(Cl)c3Cl)N=C2N1` [Anagrelide], the values for the exposure (AUC) in [5] (setting [11]), in series [5] (setting [12]) and in series [5] (anagrelide Oral 1 mg/capsule) were 10.8 ng·h/mL, 50.7 ng·h/mL and 10.3 ng·h/mL, respectively. Besides, the highest concentration (Cmax) in series [5] (setting [11]) is 0.69 ng/mL; in [5] (setting [12]), 87.1 ng/mL; in [5] (anagrelide Oral 1 mg/capsule), 1.45 ng/mL. Further, the “decline in concentrations post-peak prior to wash-off at 24 h” value in series [5] (mini-pig, dermal application) is listed as 50%. Moreover, the average dermal flux in [5] (mini-pig, dermal saturated solution in 5% oleic acid in propylene glycol, estimated) was 197 ng/cm2/h. The “maximum plasma concentration lower following dermal application versus oral” value in series [5] (mini-pig, dermal versus oral 1 mg) is 50%. For the same molecule, the “exposure to anagrelide, dermal versus oral route” value in series [5] (mini-pig, oral 1 mg versus dermal saturated solution) is listed as “comparable exposure”. For the same molecule, the “AUC0-inf ± RSD (%)” value in [6] stood at 11.1 ± 37.6 ng·h/mL. The “Cmax ± RSD (%)” value in [6] is 4.99 ± 74.4 ng/mL. Further, the “Tmax ± RSD (%)” value in [6] turned out to be 1.3 ± 53.8 h. The “t1/2 ± RSD (%)” value in series [6] worked out at 1.5 ± 49.8 h. Moreover, the “effect on number of megakaryocytes” value in [7] (continuous exposure to 4 ng/ml anagrelide (~13 nM)) and in series [7] (single dose of 40 ng/ml anagrelide (~133 nM)) was “no effect” throughout. Also, the number of megakaryocytes in series [7] (continuous exposure to 4 ng/ml anagrelide (~13 nM), p=0.038, n=3) was 77±5 % of control; in [7] (single dose of 40 ng/ml anagrelide (~133 nM), p=0.015, n=3) it was 68±4 % if control. For the same molecule, the “Amt permeated at 24 hours” value in series [8] (saturated solution in 2% OA in PG) was 8.9 μg/cm^2; in series [8] (saturated solution in 5% GLA in IPM), 5.2 μg/cm^2; in series [8] (saturated solution in 5% GMO in IPM), 5.7 μg/cm^2; in [8] (saturated solution in 5% LA in IPM) it was 0.5 μg/cm^2; in series [8] (saturated solution in 5% OA in PG), 4.4 μg/cm^2; in [8] (saturated solution in IPM (isopropyl myristate)) it was 1.5 μg/cm^2. Besides, the “Amt permeated at 24 hours” value in [9] (saturated solution in 0.5% OA in PG) was found to be 0.5 μg/cm^2; in [9] (saturated solution in 70:30 DMSO:PG ('gold standard')), 8.4 μg/cm^2; in series [9] (saturated solution in 70:30 DMSO:PG ('gold standard'), listed as anagrelide), 8.41 μg/cm^2; in series [9] (saturated solution in Ethanol) it was 0.9 μg/cm^2; in series [9] (saturated solution in Formulation 1 (Labrasol, Plurol Oleique, Labrafac Lipophile, propylene glycol)), 2.1 μg/cm^2; in [9] (saturated solution in Formulation 2 (Labrafil M 1944CS, Labrafac Lipophile, Labrasol, Plurol oleique, water)) it was 1.5 μg/cm^2. In addition, the “Amt permeated at 24 hours” value was 0.04 μg/cm^2 in [9] (saturated solution in Glycerol); 0.5 μg/cm^2 and 0.54 μg/cm^2 in series [9] (saturated solution in PG (propylene glycol)); 0.5 μg/cm^2 in series [9] (saturated solution in PG (propylene glycol), listed as anagrelide); 0.0 μg/cm^2 and 0 μg/cm^2 in series [9] (saturated solution in Transcutol); 0.0 μg/cm^2 and 0 μg/cm^2 in series [9] (saturated solution in Triacetin). Also, in series [9] (calculated for transdermal delivery in man), the “Cav from the maximum likely flux rate through human skin” value was 3 to 4 ng/mL. Besides, the “AUC0-t ± RE (AUC over dosage interval)” value in series [10] is listed as 18.64(5.28) ng · h/mL. The “Cmax ± RE” value in [10] was 5.31(1.33) ng/mL. Further, in series [10], the “Tmax ± RE” value was 2.00(0.32) hours. The “t1/2 ± RE” value in series [10] is 2.89(0.73) hours.

These data come from US20040209907A1, “Formulation and methods for the treatment of thrombocythemia” (priority 2003, published 2004).
